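Protocol summary: plate cells (96-well), add compound at 5 concentrations, incubate 48 h, interpolate endpoints linearly. At the GI50, growth is halved.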 Calls of active or inactive are those of the source. Rule as the data show it: active = GI50 up to about 1.1 µM and inactive = higher.
Columns and labels:
Assay in all cases: NCI tumour cell line growth inhibition, 48 h
[1] = system: U-251
[2] = system: HOP-92
[3] = system: NCI-H226
[4] = system: SNB-19
[5] = system: HOP-62
[6] = system: UACC-257
[7] = system: KM-20L2
[8] = system: OVCAR-8
[9] = system: MOLT-4
[10] = system: OVCAR-5
[11] = system: A498
[12] = system: K562
[13] = system: HL-60
[14] = system: SF-539
[15] = system: UO-31
[16] = system: SK-MEL-28
[17] = system: MDA-MB-435
[18] = system: PC-3
[19] = system: Hs-578T
[20] = system: MDA-N

Measured: GI50

NC(=O)c1ccccc1NC(=O)C(=O)C(C(=O)c1ccc(Cl)c(Cl)c1)C1OC(=O)c2ccccc21 (stereo unspecified)
inactive: [1] 30.8 µM | [2] 42.8 µM | [3] 14.9 µM | [4] 45 µM | [5] 43.8 µM | [6] 62.4 µM | [7] 46.9 µM | [8] 39.6 µM | [9] > 100 µM | [10] > 100 µM | [11] 31.8 µM | [12] > 100 µM | [13] > 100 µM

CC(=O)N1CC(=O)NC1=S
inactive: [1] > 100 µM | [14] > 100 µM | [15] > 100 µM | [2] > 100 µM | [3] > 100 µM | [4] > 100 µM | [5] > 100 µM | [6] > 100 µM | [7] > 100 µM | [8] > 100 µM | [9] > 100 µM | [10] > 100 µM | [12] > 100 µM | [16] > 100 µM | [13] > 100 µM

O=C(/C=C/c1ccc([N+](=O)[O-])o1)N1CCN(Cc2ccccc2)CC1
inactive: [1] 14 µM | [14] 6.61 µM | [15] 17.3 µM | [2] 14.1 µM | [4] 16.2 µM | [5] 20.2 µM | [6] 7.89 µM | [7] 10.9 µM | [8] 12.2 µM | [9] 11.6 µM | [10] 17.3 µM | [11] 15.7 µM | [12] 3.46 µM | [16] 4.89 µM | [13] 2.56 µM

O=C(O)C1=NN=C(C(=O)O)NN1
inactive: [1] > 100 µM | [14] > 100 µM | [15] > 100 µM | [2] > 100 µM | [3] > 100 µM | [4] > 100 µM | [6] > 100 µM | [7] > 100 µM | [8] > 100 µM | [9] > 100 µM | [10] > 100 µM | [12] 72.9 µM | [16] > 100 µM | [13] > 100 µM

COc1cccc(N2C(=O)c3c(c4[nH]c5ccccc5c4c4ccc(C(C)(C)C)cc34)C2=O)c1
inactive: [1] > 100 µM | [14] > 100 µM | [15] > 100 µM | [2] > 100 µM | [3] > 100 µM | [4] > 100 µM | [5] > 100 µM | [6] > 100 µM | [7] > 100 µM | [8] > 100 µM | [9] 84.7 µM | [10] > 100 µM | [11] > 100 µM | [12] > 100 µM | [16] > 100 µM

COc1ccc2occ(CCC(=O)O)c2c1
inactive: [1] > 100 µM | [14] > 100 µM | [2] > 100 µM | [4] > 100 µM | [5] > 100 µM | [6] > 100 µM | [7] > 100 µM | [8] > 100 µM | [9] > 100 µM | [11] > 100 µM | [12] > 100 µM | [16] > 100 µM | [13] > 100 µM

Nc1nnc(NC(=O)C2=NS(=O)(=O)c3cc(S(N)(=O)=O)c(Cl)cc3N2)[nH]1
inactive: [1] > 100 µM | [14] > 100 µM | [15] > 100 µM | [2] > 100 µM | [3] > 100 µM | [4] > 100 µM | [5] > 100 µM | [6] > 100 µM | [7] > 100 µM | [9] > 100 µM | [10] > 100 µM | [11] > 100 µM | [12] > 100 µM | [16] > 100 µM

O=C1CC[C@@H](S(=O)(=O)c2ccccc2)[C@H](/C=C/c2ccccc2)O1
inactive: [1] > 100 µM | [14] > 100 µM | [15] > 100 µM | [3] > 100 µM | [4] > 100 µM | [5] > 100 µM | [6] > 100 µM | [7] > 10 µM | [8] > 100 µM | [9] > 100 µM | [10] > 100 µM | [11] > 100 µM | [12] > 100 µM | [16] > 100 µM | [13] > 100 µM

NCCCCNCCCNC(=O)CNC(=O)CC(O)C(N)CCCC(NC(=O)C(CN)NC(=O)C(O)CNC(=O)CC(N)c1ccc(O)cc1)C(=O)O (stereo unspecified)
inactive: [17] > 10 µM | [1] > 10 µM | [14] > 10 µM | [18] > 10 µM | [19] > 10 µM | [15] > 10 µM | [2] > 10 µM | [3] > 10 µM | [4] > 10 µM | [5] > 10 µM | [6] > 10 µM | [8] > 10 µM | [9] > 10 µM | [10] > 10 µM | [11] > 10 µM | [12] > 10 µM | [16] > 10 µM | [13] > 10 µM | [20] > 10 µM

CC1Cc2c(N)nc(NN)nc2NC1=O (stereo unspecified)
inactive: [1] > 100 µM | [14] > 100 µM | [15] > 100 µM | [3] > 100 µM | [4] > 100 µM | [5] > 100 µM | [6] > 100 µM | [7] > 100 µM | [8] > 100 µM | [9] > 100 µM | [12] > 100 µM | [16] > 100 µM | [13] > 100 µM

From ChEMBL document CHEMBL1201862, “PubChem BioAssay data set” (2004)
